Assay results as given in patent US10617690B2 (priority 2015, dated 2020).
pIC50: −log10 of the molar value.

Experiments:
[1] = biological target: JAK2 protein kinase (Homo sapiens, UniProt O60674); experiment: biochemical; settings: 12 uM ATP, 60 min;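 further: recombinant human JAK2 with ULight-labelled JAK-1(Tyr1023) peptide substrate, phosphorylation detected by TR-FRET using Eu-labelled anti-phosphotyrosine antibody, 1% DMSO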
Description: (§1) Recombinant humanized JAK1, JAK2 and JAK3 protease were all purchased from Life technology. LANCE Ultra ULight™-JAK-1(Tyr1023) peptide and LANCE Eu-W1024 Anti-phosphotyrosine (PT66) were both purchased from PerkinElmer. Envision (PerkinElmer) was used to read a plate.
(§2) The reading was converted into a suppression ratio as follow equation: (%)=(Min−Ratio)/(Max−Min)*100%.

[2] = biological target: T1, JAK3 (Homo sapiens, UniProt P52333); experiment: In vitro activity test of JAK3 kinase (LANCE Ultra TR-FRET); format: biochemical;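 further: recombinant human JAK3 phosphorylating ULight-JAK-1(Tyr1023) peptide at 4 µM ATP, with 1% DMSO, detected by Eu-anti-phosphotyrosine TR-FRET on Envision and converted to percent inhibition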
T1 construct: purchased Life technology
T1 sequence (P52333 1-1124): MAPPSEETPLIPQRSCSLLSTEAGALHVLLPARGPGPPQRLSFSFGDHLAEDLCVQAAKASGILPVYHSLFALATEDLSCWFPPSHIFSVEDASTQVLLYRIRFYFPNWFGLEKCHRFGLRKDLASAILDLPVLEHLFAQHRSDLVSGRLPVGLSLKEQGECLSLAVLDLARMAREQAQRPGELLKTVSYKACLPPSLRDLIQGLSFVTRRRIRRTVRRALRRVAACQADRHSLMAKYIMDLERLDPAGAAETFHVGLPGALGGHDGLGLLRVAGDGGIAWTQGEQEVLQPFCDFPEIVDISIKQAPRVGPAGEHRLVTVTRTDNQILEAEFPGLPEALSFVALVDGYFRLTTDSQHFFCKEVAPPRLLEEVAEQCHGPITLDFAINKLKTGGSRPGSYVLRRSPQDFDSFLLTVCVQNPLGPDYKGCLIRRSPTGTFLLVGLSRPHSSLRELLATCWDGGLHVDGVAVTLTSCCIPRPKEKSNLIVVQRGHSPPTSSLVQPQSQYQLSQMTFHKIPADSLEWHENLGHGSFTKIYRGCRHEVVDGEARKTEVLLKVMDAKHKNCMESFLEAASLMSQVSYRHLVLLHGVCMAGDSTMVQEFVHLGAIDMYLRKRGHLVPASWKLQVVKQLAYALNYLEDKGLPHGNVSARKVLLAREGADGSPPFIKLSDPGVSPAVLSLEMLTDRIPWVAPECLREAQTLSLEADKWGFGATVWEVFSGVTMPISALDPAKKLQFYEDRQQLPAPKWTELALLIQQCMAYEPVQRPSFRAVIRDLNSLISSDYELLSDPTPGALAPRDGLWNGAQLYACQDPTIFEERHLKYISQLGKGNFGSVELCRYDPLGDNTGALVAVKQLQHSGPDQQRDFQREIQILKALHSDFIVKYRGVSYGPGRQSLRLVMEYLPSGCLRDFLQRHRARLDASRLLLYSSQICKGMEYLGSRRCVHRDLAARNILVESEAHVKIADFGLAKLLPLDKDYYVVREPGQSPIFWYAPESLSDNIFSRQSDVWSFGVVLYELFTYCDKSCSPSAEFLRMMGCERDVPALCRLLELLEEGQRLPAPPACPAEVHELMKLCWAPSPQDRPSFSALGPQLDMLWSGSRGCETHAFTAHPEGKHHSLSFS
Description: as §1
0.05 nM protein kinase, 50 nM LANCE Ultra ULight™-JAK-1(Tyr1023) peptide, 4 uM ATP, 50 mM HEPES (pH7.5), 10 mM MgCl2, 1 mM EGTA, 2 mM DTT, and 0.01% BRIJ-35.
as §2

[3] = biological target: JAK1 protein kinase (Homo sapiens, UniProt P23458); experiment: biochemical; settings: 38 uM ATP, 90 min
Sequence of JAK1 protein kinase (P23458 whole entry): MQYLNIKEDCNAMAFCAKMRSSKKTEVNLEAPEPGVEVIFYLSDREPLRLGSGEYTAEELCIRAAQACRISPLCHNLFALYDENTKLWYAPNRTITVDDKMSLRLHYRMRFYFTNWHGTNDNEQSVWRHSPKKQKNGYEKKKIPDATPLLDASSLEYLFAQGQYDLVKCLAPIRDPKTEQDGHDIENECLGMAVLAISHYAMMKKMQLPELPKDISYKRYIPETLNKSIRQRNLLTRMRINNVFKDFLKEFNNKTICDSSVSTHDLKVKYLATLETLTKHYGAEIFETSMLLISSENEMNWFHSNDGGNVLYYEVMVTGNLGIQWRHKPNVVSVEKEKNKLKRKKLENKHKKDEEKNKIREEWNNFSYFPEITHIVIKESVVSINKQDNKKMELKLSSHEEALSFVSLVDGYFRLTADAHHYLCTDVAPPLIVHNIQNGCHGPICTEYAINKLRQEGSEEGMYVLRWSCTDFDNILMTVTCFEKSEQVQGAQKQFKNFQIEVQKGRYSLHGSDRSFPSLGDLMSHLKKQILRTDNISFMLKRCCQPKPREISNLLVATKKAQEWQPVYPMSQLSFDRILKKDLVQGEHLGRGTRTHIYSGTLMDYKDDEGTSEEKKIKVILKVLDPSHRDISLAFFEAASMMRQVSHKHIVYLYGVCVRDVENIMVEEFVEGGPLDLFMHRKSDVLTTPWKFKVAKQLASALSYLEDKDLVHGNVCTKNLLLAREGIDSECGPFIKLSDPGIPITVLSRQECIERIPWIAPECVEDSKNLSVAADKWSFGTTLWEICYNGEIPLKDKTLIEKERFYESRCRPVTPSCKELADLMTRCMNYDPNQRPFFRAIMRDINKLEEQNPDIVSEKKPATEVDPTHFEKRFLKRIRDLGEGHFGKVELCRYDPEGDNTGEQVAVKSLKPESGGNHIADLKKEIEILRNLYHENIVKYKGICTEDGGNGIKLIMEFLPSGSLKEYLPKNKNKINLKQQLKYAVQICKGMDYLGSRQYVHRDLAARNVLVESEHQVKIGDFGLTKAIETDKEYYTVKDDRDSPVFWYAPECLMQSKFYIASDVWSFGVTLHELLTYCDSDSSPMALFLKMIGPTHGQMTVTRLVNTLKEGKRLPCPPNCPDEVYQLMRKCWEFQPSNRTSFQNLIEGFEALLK
Description: In Vitro Activity Test of Jak1, Jak 2 and Jak 3 Kinase
Recombinant humanized JAK1, JAK2 and JAK3 […] were all purchased from Life technology. LANCE Ultra ULight™-JAK-1(Tyr1023) peptide and LANCE Eu-W1024 Anti-phosphotyrosine (PT66) were both purchased from PerkinElmer. Envision (PerkinElmer) was used to read a plate.
Three dilution of a test compound was prepared, and 11 final concentrations were obtained: 10 uM to 0.17 nM. Each concentration had two repeat wells. The content of DMSO in a detection reaction was 1%.
2 nM JAK1 protein kinase, 50 nM LANCE Ultra ULight™-JAK-1(Tyr1023) peptide, 38 uM ATP, 50 mM HEPES (pH7.5), 10 mM MgCl2, 1 mM EGTA, 2 mM DTT, and 0.01% BRIJ-35. Detection plate was White Proxiplate 384-Plus plate (PerkinElmer), the reaction was conducted for 90 min at room temperature, and reaction system was 10 ul.
10 ul detection reagent was added into the reaction plate, wherein the final concentration of LANCE Eu-W1024 Anti-phosphotyrosine (PT66) was 2 nM, the final concentration of EDTA was 10 mM, incubation was conducted for 60 min at room temperature, and the plate was read by the Envision.
The reading was converted into a suppression ratio as follow equation: (%)=([…])/(Max−Min)*100%. IC50 data was detected by 4 parametric curve fitting (Model 205 in XLFIT5, iDBS), see Table 1.

Sequence of JAK2 protein kinase (O60674 whole entry): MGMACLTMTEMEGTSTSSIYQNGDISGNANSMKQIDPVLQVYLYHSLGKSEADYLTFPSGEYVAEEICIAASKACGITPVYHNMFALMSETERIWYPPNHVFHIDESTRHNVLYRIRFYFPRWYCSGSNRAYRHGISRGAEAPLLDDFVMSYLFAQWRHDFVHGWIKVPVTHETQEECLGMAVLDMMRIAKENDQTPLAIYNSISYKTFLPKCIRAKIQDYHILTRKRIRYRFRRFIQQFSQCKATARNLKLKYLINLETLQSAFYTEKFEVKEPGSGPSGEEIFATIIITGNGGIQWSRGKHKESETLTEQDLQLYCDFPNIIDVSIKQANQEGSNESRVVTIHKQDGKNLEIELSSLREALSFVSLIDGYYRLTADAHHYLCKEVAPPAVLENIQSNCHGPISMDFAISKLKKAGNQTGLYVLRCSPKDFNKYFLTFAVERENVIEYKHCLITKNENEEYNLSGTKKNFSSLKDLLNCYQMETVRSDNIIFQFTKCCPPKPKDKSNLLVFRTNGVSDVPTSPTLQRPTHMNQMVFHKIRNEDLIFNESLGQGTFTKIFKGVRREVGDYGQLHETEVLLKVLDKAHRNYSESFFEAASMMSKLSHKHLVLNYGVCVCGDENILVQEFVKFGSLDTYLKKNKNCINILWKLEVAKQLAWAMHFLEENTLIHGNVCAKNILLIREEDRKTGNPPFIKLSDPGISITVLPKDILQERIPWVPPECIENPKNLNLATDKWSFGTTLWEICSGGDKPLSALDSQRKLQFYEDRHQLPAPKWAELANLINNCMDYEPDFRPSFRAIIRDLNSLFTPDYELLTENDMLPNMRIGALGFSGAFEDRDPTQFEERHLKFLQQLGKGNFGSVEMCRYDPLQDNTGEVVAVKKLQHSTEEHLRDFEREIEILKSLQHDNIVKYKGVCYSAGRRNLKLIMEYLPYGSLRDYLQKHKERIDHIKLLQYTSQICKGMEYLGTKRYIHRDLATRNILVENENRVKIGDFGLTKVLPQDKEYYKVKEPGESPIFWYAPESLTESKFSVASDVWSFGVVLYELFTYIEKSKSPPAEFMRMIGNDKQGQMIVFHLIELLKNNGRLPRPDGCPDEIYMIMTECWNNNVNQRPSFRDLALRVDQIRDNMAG

SMILES	pIC50 [1]	pIC50 [2]	pIC50 [3]
CN(c1ncnc2[nH]ccc12)N1CCCC(NC(=O)CC(F)(F)F)C1 (stereo not drawn) [WX13, 3,3,3-trifluoroethyl-N-(1-(methyl(7H-pyrrolo[2,3-d]pyrimidin-4-yl)amino)piperidyl-3-)propylcarboxamide]	< 6.00	6.00 to 7.00	6.00 to 7.00
CN(c1ncnc2[nH]ccc12)N1CCCC(CC(=O)NCC#N)C1 (stereo not drawn) [WX18]	< 6.00	6.00 to 7.00	6.00 to 7.00
CN(c1ncnc2[nH]ccc12)N1CCCC(CNC(=O)CC(F)(F)F)C1 (stereo not drawn) [WX19, 3,3,3-trifluoro-N-((1-(methyl(7H-pyrrole[2,3-d]pyrimidine-4-)amino)piperidyl-3-)methyl)propionamide]	< 6.00	6.00 to 7.00	6.00 to 7.00
CN(c1ncnc2[nH]ccc12)N1CCC(C(=O)NCC#N)CC1 [WX20, N-(cyanomethyl)-1-(methyl(7H-pyrrolo[2,3-d]pyrimidin-4-yl)amino)piperidyl-4-formamide]	6.00 to 7.00	7.00 to 8.00	7.00 to 8.00
N#CCNC(=O)C1CCN(Nc2ncnc3[nH]ccc23)CC1 [WX21]	< 6.00	6.00 to 7.00	7.00 to 8.00
CC1CCC(C(=O)NCC#N)CN1N(C)c1ncnc2[nH]ccc12 (stereo not drawn) [WX26, N-(cyanomethyl)-6-methyl-1-[methyl(7H-pyrrolo[2,3-d]pyrimidin-4-yl)amino]piperidyl-3-formamide]	< 6.00	6.00 to 7.00	6.00 to 7.00
CC1CCC2CN1N(c1ncnc3[nH]ccc13)C2=O (stereo not drawn) [WX28, 2-methyl-7-(7H-pyrrolo[2,3-d]pyrimidin-4-yl)-1,7-diazabicyclo[3.2.1]octan-6-one]	< 6.00	< 6.00	< 6.00
CN(c1ncnc2[nH]ccc12)N1CCCC(N2CCCC2=O)C1 (stereo not drawn) [WX29, 1-[1-[methyl(7H-pyrrolo[2,3-d]pyrimidin-4-yl)amino]-3-piperidinyl]pyrrolid-2-one]	< 6.00	6.00 to 7.00	< 6.00
CN(c1ncnc2[nH]ccc12)N1CCC(C(=O)NCC#N)C1 (stereo not drawn) [WX30, N-(cyanomethyl)-1-[methyl(7H-pyrrolo[2,3-d]pyrimidin-4-yl)amino]pyrrolidyl-3-formamide]	7.00 to 8.00	7.00 to 8.00	> 8.00
CN(c1ncnc2[nH]ccc12)N1CCC(C(=O)NCC(F)(F)F)C1 (stereo not drawn) [WX31, 1-[methyl(7H-pyrrolo[2,3-d]pyrimidin-4-yl)amino]-N-(2,2,2-trifluoroethyl)pyrrolidyl-3-formamide]	7.00 to 8.00	7.00 to 8.00	> 8.00
O=C(CC(F)(F)F)N1CCCN(Nc2ncnc3[nH]ccc23)CC1 [WX35, L-(4-((7H-pyrrolo[2,3-d]pyrimidin-4-yl)amino)-diazepan-1-yl)-3,3,3-trifluorotrifluoropropan-1-one]	< 6.00	< 6.00	< 6.00
CN(c1ncnc2[nH]ccc12)N1CCCC(C)(C(=O)NCC#N)C1 (stereo not drawn) [WX37, N-(cyanomethyl)-3-methyl-1-[methyl(7H-pyrrolo[2,3-d]pyrimidie-yl)amino]piperidyl-3-formamide]	< 6.00	< 6.00	< 6.00
COCNC(=O)C1CCCN(N(C)c2ncnc3[nH]ccc23)C1 (stereo not drawn) [WX42]	6.00 to 7.00	7.00 to 8.00	7.00 to 8.00

Results, then the molecule that gave them:

pIC50 [1]	pIC50 [2]	pIC50 [3]	SMILES
6.00 to 7.00	6.00 to 7.00	7.00 to 8.00	CN(c1ccnc2[nH]ccc12)N1CCCC(C(=O)NCC(F)(F)F)C1 (stereo not drawn) [WX15, N-(2,2,2-trifluoroethyl)-1-(methyl(1H-pyrrole[2,3-d]pyridin-4-yl)amino)piperidyl-3-formamide]
< 6.00	6.00 to 7.00	6.00 to 7.00	CN(c1ncnc2[nH]ccc12)N1CCCC(CC(=O)NCC(F)(F)F)C1 (stereo not drawn) [WX17]
< 6.00	6.00 to 7.00	6.00 to 7.00	O=C(NCC(F)(F)F)C1CCN(Nc2ncnc3[nH]ccc23)CC1 [WX22]
6.00 to 7.00	7.00 to 8.00	7.00 to 8.00	CN(c1ncnc2[nH]ccc12)N1CCC(C(=O)NCC(F)(F)F)CC1 [WX23]
6.00 to 7.00	6.00 to 7.00	7.00 to 8.00	CN(c1ncnc2[nH]ccc12)N1CCC(NC(=O)CC(F)(F)F)CC1 [WX24]
6.00 to 7.00	6.00 to 7.00	7.00 to 8.00	CN(c1ncnc2[nH]ccc12)N1CCC(NC(=O)CC#N)CC1 [WX25, 2-cyano-N-(1-(methyl(7H-pyrrolo[2,3-d]pyrimidin-4-yl)amino)piperidin-4-yl)acetamide]
< 6.00	6.00 to 7.00	6.00 to 7.00	CC1CCC(C(=O)NCC(F)(F)F)CN1N(C)c1ncnc2[nH]ccc12 (stereo not drawn) [WX27, 6-methyl-1-(methyl(7H-pyrrole[2,3-d]pyrimidin-4-yl)amino)-N-(2,2,2-trifluoroethyl)piperidyl-3-formamide]
6.00 to 7.00	6.00 to 7.00	6.00 to 7.00	CN(c1ncnc2[nH]ccc12)N1CCCN(C(=O)CC#N)CC1 [WX34, 3-(4-(methyl(7H-pyrrolo[2,3-d]pyrimidin-4-yl)amino)-1,4-diazepan-1-yl)-3-carbonyl-propionitrile]
< 6.00	< 6.00	6.00 to 7.00	CN(c1ncnc2[nH]ccc12)N1CCCN(C(=O)CC(F)(F)F)CC1 [WX36]
< 6.00	< 6.00	< 6.00	CN(c1ncnc2[nH]ccc12)N1CCCC(C)(C(=O)NCC(F)(F)F)C1 (stereo not drawn) [WX38, 3-methyl-11-(methyl(7H-pyrrolo[2,3-d]pyrimidine-4-yl)amino)-N-(2,2,2-trifluoroethyl)piperidyl-3-formamide]
< 6.00	< 6.00	7.00 to 8.00	O=C(NCC(F)(F)F)C1CN(Nc2ncnc3[nH]ccc23)CCO1 (stereo not drawn) [WX40, 4-((7H-pyrrolo[2,3-d]pyrimidin-4-yl)amino)-N-(2,2,2-trifluoroethyl)morpholine-2-form amide]
6.00 to 7.00	6.00 to 7.00	7.00 to 8.00	CN(c1ncnc2[nH]ccc12)N1CCOC(C(=O)NCC(F)(F)F)C1 (stereo not drawn) [WX41, 4-(methyl(7H-pyrrolo[2,3-d]pyrimidin-4-yl)amino)-N-(2,2,2-trifluoroethyl)morpholine-2-formamide]
7.00 to 8.00	7.00 to 8.00	> 8.00	CSCNC(=O)C1CCCN(N(C)c2ncnc3[nH]ccc23)C1 (stereo not drawn) [WX43]
6.00 to 7.00	6.00 to 7.00	7.00 to 8.00	CN(c1ncnc2[nH]ccc12)N1CCCC(CC#N)C1 (stereo not drawn) [WX44, 2-[1-[methyl[7H-pyrrole[2,3-d]pyrimidine-4-]amino]-3-piperidyl]acetonitrile]
6.00 to 7.00	6.00 to 7.00	7.00 to 8.00	CN(c1ncnc2[nH]ccc12)N1CCCC(CNC(=O)CC#N)C1 (stereo not drawn) [WX45]
7.00 to 8.00	7.00 to 8.00	≥ 8.00	CN(c1ncnc2[nH]ccc12)N1CCCC(C(=O)NCC(F)(F)C(F)(F)F)C1 (stereo not drawn) [WX46, 1-[methyl(7H-pyrrole[2,3-d]pyrimidine-4-)amino]-N-(2,2,3,3,3-pentafluoropropyl)piperidyl-3-formamide]
7.00 to 8.00	> 8.00	≥ 8.00	CN(c1ncnc2[nH]ccc12)N1CCCC(C(=O)NCC(F)F)C1 (stereo not drawn) [WX47, 1-[methyl(7H-pyrrole[2,3-d]pyrimidine-4-)amino]-N-(2,2-difluoroethyl)piperidyl-3-formamide]
